Measurements as given in article PMC7509852 (Biochemistry, 2020).

Assays:
[1] = target: T1, Cj1427 (Campylobacter jejuni, UniProt Q0P8I7); assay: UV-vis spectrum of bound cofactor; assay type: biochemical; conditions: NAD+-bound enzyme; 2.0 mM substrate; 50 mM HEPES/KCl pH 7.4, 30 °C
[2] = target: T1, Cj1427; assay: UV-vis loss of […] nm band; assay type: biochemical; conditions: NADH-bound enzyme; 2.0 mM substrate; 50 mM HEPES/KCl pH 7.4, 30 °C

T1 sequence (Q0P8I7 whole entry): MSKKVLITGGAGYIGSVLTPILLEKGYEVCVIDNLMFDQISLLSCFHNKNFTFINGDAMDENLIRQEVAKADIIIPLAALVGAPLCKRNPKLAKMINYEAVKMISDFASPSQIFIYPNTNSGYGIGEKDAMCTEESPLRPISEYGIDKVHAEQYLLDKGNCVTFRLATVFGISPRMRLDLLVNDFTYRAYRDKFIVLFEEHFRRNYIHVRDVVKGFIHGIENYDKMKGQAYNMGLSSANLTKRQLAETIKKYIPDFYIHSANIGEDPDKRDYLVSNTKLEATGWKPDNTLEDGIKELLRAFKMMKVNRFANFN

SMILES	UV-vis spectrum of bound cofactor [1]	UV-vis loss of 350 nm band; ion exchange chromatography [2]
O=C(O)CC[C@H](O)C(=O)O [L-2-hydroxyglutarate]	Cj1427 with bound NAD^+ catalyzes the oxidation of L-2-hydroxyglutarate to α-ketoglutarate and NADH	
O=C(O)CCC(=O)C(=O)O [α-ketoglutarate]		initially bound NADH was converted to NAD^+ in the presence of α-ketoglutarate
